# Like-named read-outs stand apart in the source and are kept apart here.
# Columns and labels:
# [1] = molecular target: T1, wild-type HCV genotype 1b NS5B protein (recombinant HCV polymerase) (Hepatitis C virus genotype 1b, UniProt Q9WMX2); assay: HCV Polymerase Enzyme Assay, wild-type; format: biochemical
# T1 construct: HCV genotype 1b NS5B protein were used to generate recombinant HCV polymerases (with a deletion of the 21 carboxy terminal amino acids); made in house
# From the text: (§1) Test compounds in the form of nucleoside triphosphates were examined for inhibitory activity against purified HCV polymerase in a standard assay. Bacterial expression constructs encoding the approximately 65 kDa HCV genotype 1b NS5B protein were used to generate recombinant HCV polymerases (with a deletion of the 21 carboxy terminal amino acids). Both the wild-type genotype 1b protein and protein containing the S282T mutation were expressed and purified for use in the enzymatic activity assay.
# (§2) The enzymatic activity assay measured the inhibitory effect of increasing concentrations of test compound on the incorporation of α-[^33P]-labeled nucleotide into trichloroacetic acid-precipitable material. Recombinant polymerase and synthetic RNA template were combined in reaction buffer containing ribonucleoside triphosphates, α-[^33P]-labeled nucleotide and eight concentrations of test compound in three-fold dilutions. Reactions were incubated for two hours at 30° C.
# (§3) Reactions were terminated by the addition of ice-cold trichloroacetic acid and sodium pyrophosphate to promote precipitation of newly-synthesized ribonucleic acid. Precipitable material from the reactions was collected by filtration onto 96-well filter plates, washed extensively with water, and quantified by liquid scintillation.
# (§4) The inhibitory activity of test compounds was determined by fitting results to dose-response curves using XLfit software.
# [2] = molecular target: T2, HCV genotype 1b NS5B protein containing the S282T mutation (Hepatitis C virus genotype 1b, UniProt Q9WMX2, S2701T); assay: HCV Polymerase Enzyme Assay, S282T; format: biochemical; settings: nucleoside triphosphates; genotype 1b NS5B with S282T mutation
# T2 construct: HCV genotype 1b NS5B protein were used to generate recombinant HCV polymerases (with a deletion of the 21 carboxy terminal amino acids); made in house
# From the text: as §1
# as §2, with “Reactions were incubated for two hours at 30° C.” left out
# as §3, §4
# [3] = tested on: HCV genotype 1b replicon; assay: HCV Replicon Assay (Zluc, luciferase); format: cell-based; settings: Zluc cells (Huh-7-derived), 72 hours of incubation
# Protocol: Huh-7-derived cell line (Zluc) that harbors an HCV genotype 1b replicon and a luciferase reporter gene was grown in Dulbecco's Modified Eagle Medium (DMEM) supplemented with 10% fetal bovine serum, 2 mM GlutaMAX, 1% MEM nonessential amino acids, 100 IU/mL penicillin, 100 μg/mL streptomycin, and 0.5 mg/mL Geneticin® (G418). For dose response testing the cells were seeded in 96-well plates at 7.5×10^3 cells per well in a volume of 50 μL, and incubated at 37° C./5% CO2. Drug solutions were made up freshly in Huh-7 media as 2× stocks. Ten additional 5-fold dilutions were prepared from these stocks in DMEM without G418. At least three hours after Zluc cells were seeded, drug treatment was initiated by adding 50 μL of drug dilutions to the plates in duplicate. Final concentrations of drug ranged from 100 μM to […]. Cells were then incubated at 37° C./5% CO2. Alternatively, compounds were tested at two concentrations (1 μM and 10 μM). […] For this, media was removed from the plates via gentle tapping. Fifty microliters of ONE-glo luciferase assay reagent was added to each well. The plates were shaken gently for 3 min at room temperature and luminescence was measured on a Victor^3 V 1420 multilabel counter (Perkin Elmer) with a 1 second read time using a 700 nm cut-off filter. The EC50 values were calculated from dose response curves from the resulting best-fit equations determined by Microsoft Excel and XLfit 4.1 software. When screening at two fixed concentrations, the results were expressed as % inhibition at 1 μM and 10 μM.
# [4] = Cytotoxicity evaluation, CellTiter-Blue Cell Viability Assay; format: cell-based; settings: human, Zluc cells, read-out: HCV Replicon CC50
# Protocol: (§5) For cytotoxicity evaluation, Zluc cells were treated with test compound as described herein, and cell viability was monitored using the CellTiter-Blue Cell Viability Assay (Promega) by adding 20 μL of the assay solution to each well. The plates were then incubated at 37° C./5% CO2 for at least 3 hours.
# [5] = tested on: Zluc cells; assay: as above; format: cell-based; settings: read-out: HCV Replicon CC50
# Protocol: as §5
# [6] = CD-1 mice, liver triphosphate, normalised to 1 μmol/kg; for Ms Liver TP AUC (pmol · hr/g at 1 μmol/kg) following a single 2 mg/kg dose: single oral 2 mg/kg dose
# Protocol: A single oral dose of test compound at 10 mg/kg and/or 2 mg/kg in PEG 200 (dose volume 5 mL/kg) was administered to nine CD-1 male mice. Five untreated animals were used for the collection of control plasma and liver. Terminal plasma and liver samples were collected from three animals per time point at 4, 12 and 24 hours post dose. Liver specimens were collected from all animals immediately after the incision. Freezing forceps stored in liquid nitrogen were used to freeze the liver before excision. Only liver samples were analyzed for triphosphate levels.
# Liver samples were analyzed for the active species nucleoside triphosphate by LC-MS/MS. The triphosphate levels were assayed by homogenizing (on ice) a known weight of mouse liver with 4× volume of 0.95 M trichloroacetic acid (TCA) in water. Internal standard solution was added to the homogenate and mixed. Sample homogenates were centrifuged at 16.1 krpm for 5 minutes. Supernatants were transferred to 96 well plates and injected onto the LC-MS/MS system. The samples were chromatographed on a Luna NH2 column using a gradient system of ammonium acetate (1 mM to 20 mM and pH 8.0 to pH 10.0) in water and acetonitrile (70:30). The analyte was detected and quantified by tandem mass spectrometry using the analyte specific MRM transition on an API4000 equipped with a Turbo Ionspray® interface.
# [7] = Liver triphosphate after a single oral dose in cynomolgus monkeys; format: in vivo
# Protocol: For Compound 2b, isomer 1, a single oral dose at 10 mg/kg in PEG 200 (dose volume 3 mL/kg) was administered to three cynomolgus monkeys. One Untreated animal was used for the collection of control liver. Terminal liver samples were collected from three animals at 6 hours post dose.
# [8] = read-out: Wild-Type IC50, nucleoside triphosphates, wild-type genotype 1b NS5B
smiles,measurement,setting,value
Nc1ncnc2c1ncn2[C@@H]1O[C@](F)(COP(=O)(O)OP(=O)(O)OP(=O)(O)O)[C@@H](O)[C@H]1O [Compound 106],IC50,[1],> 10000 nM
Nc1ccn(C2O[C@](F)(COP(=O)(O)OP(=O)(O)OP(=O)(O)O)[C@@H](O)[C@H]2O)c(=O)n1 (stereo partly shown) [Compound 105],IC50,[1]; [8],250 to 1000 nM
O=c1ccn(C2O[C@](F)(COP(=O)(O)OP(=O)(O)OP(=O)(O)O)[C@@H](O)[C@H]2O)c(=O)[nH]1 (stereo partly shown) [Compound 102],IC50,[1]; [8],250 to 1000 nM
same,IC50,[2],< 250 nM
Nc1nc2c(ncn2[C@@H]2O[C@](F)(COP(=O)(O)OP(=O)(O)OP(=O)(O)O)[C@@H](O)[C@H]2O)c(=O)[nH]1 [Compound 103],IC50,[1],< 250 nM
same,IC50,[2],< 250 nM
"CC(C)OC(=O)[C@H](C)NP(=O)(OC[C@@]1(F)O[C@@H](n2cnc3c(=O)[nH]c(N)nc32)[C@@H](O)C1O)Oc1ccccc1 (single isomer, unassigned) [Compound 3b Diastereomer 2]",EC50,"[3]; Hepatitis C virus, 72 h",250 to 1000 nM
same,CC50,[4],> 50000 nM
"CC(C)OC(=O)[C@H](C)NP(=O)(OC[C@@]1(F)O[C@@H](n2ccc(=O)[nH]c2=O)[C@H](O)[C@@H]1O)Oc1ccccc1 (single isomer, unassigned) [Compound 2b Diastereomer 2]",EC50,[3]; listed as 2b Diastereomer 2,1000 to 10000 nM
same,CC50,[5],> 50000 nM
same,Ms Liver TP AUC (pmol · hr/g at 1 μmol/kg) following a single 2 mg/kg dose,[6],+++++ (1600 < +++++)
O=c1[nH]c(=O)n([C@@H]2O[C@](F)(COP(=O)(O)OP(=O)(O)OP(=O)(O)O)[C@@H](O)[C@H]2O)cc1Br [Compound 104],IC50,[1],1000 to 10000 nM
C[C@]1(O)[C@H](n2cc(Br)c(=O)[nH]c2=O)O[C@](F)(COP(=O)(O)OP(=O)(O)OP(=O)(O)O)[C@H]1O [Compound 101],IC50,[1],1000 to 10000 nM
"CC(C)OC(=O)[C@H](C)NP(=O)(OC[C@@]1(F)O[C@@H](n2ccc(=O)[nH]c2=O)[C@H](O)[C@@H]1O)Oc1ccccc1 (single isomer, unassigned) [Compound 2b Diastereomer 1]",EC50,[3]; listed as 2b Diastereomer 1,> 10000 nM
same,CC50,[4],> 50000 nM
same,Nucleoside triphosphate in Liver C6 (pmol/g) at 1 μmol/kg,"[7]; 6 hr post dose, normalised to 1 μmol/kg",+ (+ ≦ 10 pmol/g)
same,Nucleoside triphosphate in Liver C6 (pmol/g) at 10 mg/kg,"[7]; single oral 10 mg/kg, concentration at 6 hr post dose",++++ (100 pmol/g < ++++ ≦ 160 pmol/g)
same,Ms Liver TP AUC (pmol · hr/g at 1 μmol/kg) following a single 2 mg/kg dose,[6],+++++ (1600 < +++++)
same,Ms Liver TP AUC (pmol · hr/g at 1 μmol/kg) following a single 10 mg/kg dose,[6]; single oral 10 mg/kg dose,+++++ (1600 < +++++)
